Assay results published in patent publication US11472844B2, “Peptidomimetics, method of synthesis and uses thereof” (priority 2017, dated 2022).
“Also recorded” adds a separate entry of the source. Non-standard residues stand in square brackets, D forms with d. No end group written: not given here. *: point of attachment. X1 = CC[N+]1=C(/C=C/C=C/C=C2N(CCCCCC(=O)NCCN3C(=O)CC(*)C3=O)c3ccc(S(=O)(=O)O)cc3C2(C)C)C(C)(C)c2cc(S(=O)(=O)[O-])ccc21

Columns and labels:
trypsin = trypsin (Sus scrofa, UniProt P00761); conditions: trypsin digestion, 37°C, pH8, followed up to 24 h
Sequence of trypsin (P00761 9-231): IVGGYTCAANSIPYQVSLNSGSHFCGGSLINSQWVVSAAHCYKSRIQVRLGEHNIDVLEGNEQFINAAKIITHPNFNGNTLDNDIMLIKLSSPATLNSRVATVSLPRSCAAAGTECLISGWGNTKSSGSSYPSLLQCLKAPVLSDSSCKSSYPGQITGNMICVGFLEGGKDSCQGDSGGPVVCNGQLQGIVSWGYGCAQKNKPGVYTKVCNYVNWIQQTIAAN
Procedure: Trypsin proteolysis. MUB40 (SEQ ID NO: 3)-Cy5 and RI-MUB40 (SEQ ID NO: 2)-Cy5 were dissolved in 50 mM ammonium bicarbonate, pH 8. Prior to digestion and owing to the propensity of maleimide derivatives to undergo ring-opening in a basic environment (Fontaine et al., 2015), we incubated both peptides at 37° C. overnight. Ring-opening completion was checked before trypsin addition. […] Lyophilized trypsin (Thermo scientific) was reconstituted using 50 mM acetic acid, diluted with 50 mM ammonium bicarbonate and added to the peptide solution so as to obtain a final peptide concentration of 0.25 mg/mL and a protease to protein ratio of 1:20 (w/w). Samples were directly incubated on the injection sampler thermostated at 37° c. HPLC and LC-MS analyses were performed as previously described above, applying a 15% to 40% linear gradient of acetonitrile in 10 mM ammonium acetate over 20 minutes.
Hydrolysis experiments were done in solution at 37° c., pH8 and monitored by HPLC by measuring the peak area of the remaining intact peptides.

[1] = system: hind and front inflamed ankles; experiment: K/B×N mice, ankle fluorescence imaging after intravenous injection; format: in vivo, mouse; conditions: 2 days post i.v. injection of 0.9 nmoles; p<0.01 vs MUB40-Cy5, p<0.001 vs Cy5 only
Description: (A) Ankles of K×B/N mice were imaged 2 Days after intravenous injection of 0.9 nmoles of RI-MUB40-Cy5 (SEQ ID NO: 2), MUB40-Cy5 (SEQ ID NO: 3) or Cy5 only. Fluorescence was quantified at the level of front or hind ankles (in ROI, as indicated).
(B) Quantification of the fluorescent signal associated with RI-MUB40 (SEQ ID NO: 2)-Cy5, MUB40 (SEQ ID NO: 3)-Cy5 or Cy5 accumulation at hind and front ankles (top) or hind ankles only (bottom). Results are average from at least three animals. ** indicates p<0.01 and *** indicates p<0.001 (Student's T-test).

human colonic mucus = experiment: Fluorescent labelling of human colonic mucus layer; format: binding; conditions: 1 μg/mL
Procedure: Colon explant surgical collection. In summary, human colon segments (ascending, descending, and sigmoid colon) were obtained from fully informed patients undergoing surgery for colon carcinoma and were analyzed anonymously. Patient written consent was obtained, according to the French bioethics law. None of the patients had undergone radiotherapy or chemotherapy. According to the pathologist's examination rules for the longitudinally bisected colon, a healthy segment of tissue, which was distant from the tumor region and devoid of metastatic cells, was removed. Tissues were processed according to the French Government guidelines for research on human tissues and the French Bioethics Act with the authorization no RBM 2009-50.
Fixation and staining procedures. For microscopy studies, purified or cultured cells and polymerized lactoferrin were resuspended onto 24-well plates containing 12 mm coverslips in RMPI 1640+10 mM Hepes (when cultured in the autologous plasma) and centrifuged at 300×g for 10 min. Culture media were removed and cells were fixed in 4% Paraformaldehyde (PFA) for two hours. Fixed cells were washed three times in PBS+0.1% saponin (Sigma-Aldrich), prior immunolabeling with primary antibodies in the same buffer for 1 hour (Triton 0.1% can alternatively be used for cell permeabilization). After three additional washes in PBS+0.1% saponin, secondary antibodies and fluorescent markers were incubated for one hour. […]
Antibodies, fluorescent markers. For immunofluorescence assay, lactoferrin was detected with a mouse anti-lactoferrin primary monoclonal antibody (Hycult biotech, clone 265-1K1, 1:50 dilution) and an anti-mouse-FITC conjugated secondary antibody (1:1000). Nuclei were detected with DAPI (Life Technologies), Lyophilized MUB40 peptides (MUB40#1 (SEQ ID NO: 3)-Cy5, MUB40#2 (SEQ ID NO: 4)-Cy5, MUB40#3 (SEQ ID NO: 5)-Cy5, MUB40#4 (SEQ ID NO: 6)-Cy5, MUB40#1 (SEQ ID NO: 3)-Dylight, RI-MUB40 (SEQ ID NO: 2)-Cy5, and RI-MUB40 (SEQ ID NO: 2)-Biotin) were solubilized in a phosphate buffer pH8 at a 1 mg/mL concentration and used at a 1:1000 dilution. […]

[2] = system: inflammatory sites, localized in joints; experiment: Mouse arthritis model (K/B×N serum transfer), in vivo epifluorescence imaging
Procedure: Mouse arthritis model. 6-7 weeks old female C57BL/6J mice were purchased from Charles River France, housed under specific pathogen-free (SPF) conditions and handled in accordance with French and European directives. Mouse protocols were approved by the Animal Ethics committee CETEA number 89 (Institut Pasteur, Paris, France) and registered under #2013-0103, and by the French Ministry of Research under agreement #00513.02. Arthritis was induced by i.v. injection of 120 μL K/B×N serum and arthritis scored as described previously (Bruhns et al. 2003). Mice injected with physiological saline were used as controls. On day 6 after serum transfer, mice were anesthetized, shaved, depilated and injected i.p. with luminol (10 mg/mouse) and i.v. with 5 μg/mouse MUB-40 Cy5. Epifluorescence, bioluminescence and CT images were acquired 10-90 min after injection using an IVIS SpectrumCT (Perkin Elmer).

[3] = system: human neutrophil granules; experiment: Fluorescent labelling of fixed purified human neutrophils; format: cell-based; conditions: 1 μg/mL
Procedure: Fixation and staining procedures. For microscopy studies, purified or cultured cells and polymerized lactoferrin were resuspended onto 24-well plates containing 12 mm coverslips in RMPI 1640+10 mM Hepes (when cultured in the autologous plasma) and centrifuged at 300×g for 10 min. Culture media were removed and cells were fixed in 4% Paraformaldehyde (PFA) for two hours. Fixed cells were washed three times in PBS+0.1% saponin (Sigma-Aldrich), prior immunolabeling with primary antibodies in the same buffer for 1 hour (Triton 0.1% can alternatively be used for cell permeabilization). After three additional washes in PBS+0.1% saponin, secondary antibodies and fluorescent markers were incubated for one hour. Coverslips were washed three time in PBS+0.1% saponin, three times in PBS, and three times in deionized H2O and mounted with prolong gold^tm mounting media.
Antibodies, fluorescent markers. For immunofluorescence assay, lactoferrin was detected with a mouse anti-lactoferrin primary monoclonal antibody (Hycult biotech, clone 265-1K1, 1:50 dilution) and an anti-mouse-FITC conjugated secondary antibody (1:1000). Nuclei were detected with DAPI (Life Technologies), Lyophilized MUB40 peptides (MUB40#1 (SEQ ID NO: 3)-Cy5, MUB40#2 (SEQ ID NO: 4)-Cy5, MUB40#3 (SEQ ID NO: 5)-Cy5, MUB40#4 (SEQ ID NO: 6)-Cy5, MUB40#1 (SEQ ID NO: 3)-Dylight, RI-MUB40 (SEQ ID NO: 2)-Cy5, and RI-MUB40 (SEQ ID NO: 2)-Biotin) were solubilized in a phosphate buffer pH8 at a 1 mg/mL concentration and used at a 1:1000 dilution. For PBMC staining CD19-APC (B lymphocytes), CD3-APC (T lymphocytes), and CD14-PercP (monocytes, macrophages) (BD Bioscience) were used at a 1:1000 dilution together with Dapi (1:1000) and MUB40-Cy5 (1 mg/mL). Actin was stained with Phalloidin-Rhodamine red X (RRX) (Jackson Immunoresearch Antibodies) used at a 1:1000 final dilution.
Polymorphonuclear neutrophils purification. Human polymorphonuclear neutrophils were purified as described previously (Monceaux et al. 2016). Briefly, plasma was removed by centrifugation (450×g, 15 min); blood cells were resuspended in 0.9% NaCl solution supplemented with 0.72% Dextran. After red blood cells sedimentation, white blood cells were pelleted and further separated on a two layer Percoll (GE Healthcare) (51%−42%) by centrifugation (at 240×g, 20 min). PBMC (top layer) were isolated from polymorphonuclear neutrophils (bottom layer). Red blood cells were removed from the latter fraction using CD235a (glycophorin) microbeads (negative selection) (Miltenyi Biotec). PBMCs and polymorphonuclear neutrophils were resuspended in the autologous plasma. Guinea pig and mouse polymorphonuclear neutrophils were purified with the same procedure.
Confocal microscopy. […]

living human neutrophils = experiment: Live microscopy of neutrophils infected with Shigella flexneri; format: cell-based
Procedure: Neutrophil infection. Human purified neutrophils were cultured in glass-bottom dishes (Mattek) for live fluorescent microscopy in a RMPI 1640 (Life Technologies) culture medium supplemented with 10% of heat inactivated Human Serum (Sigma-Aldrich). Neutrophils (5.10^5 cell/mL in 2 mL) were infected with exponentially-grown Shigella flexneri 5a pGFP at a Multiplicity Of Infection (MOI) 20 in RMPI 1640 (Life Technologies) culture medium supplemented with 10 mM Hepes (Life Technologies) at 37° C. Infected neutrophils were centrifuged at 2000 rpm for 10 min prior imaging.
Live epifluorescence microscopy. Viable neutrophils infected with S. flexneri pGFP were imaged on a Definite focus live microscope (Zeiss) equipped with a temperature control chamber (37° C.) and a 63× oil immersion objective. Images were acquired every 60 s. Z-stack images were taken with […] step-size increments. Obtained Z-stack images were processed with Fiji software to generate a Movie and the corresponding extracted images are shown in FIG. 16a.

[4] = system: mucus produced by human cell lines (L174T); experiment: Binding to mucus produced by human cell lines; format: cell-based
[5] = system: neutrophils recruited to guinea pig colonic mucosa infected with Shigella flexneri; experiment: Guinea pig model of shigellosis, staining of fixed colon sections; conditions: guinea pig colon, Shigella flexneri, 1 μg/ml
Procedure: Guinea pig. The experimental protocol was approved by the french Ethic Committee Paris (n° 20140069, 2014). Young guinea pigs (Hartley, <150 g, Charles River) were anaesthetized and infected intrarectally with 10^9 CFU exponentially grown Shigella flexneri 5a (M90T) pGFP as previously described (Shim et al. 2007) (Monceaux et al. 2016). Infection occurred during 8 hours before animals were sacrificed and infected colons collected and fixed in 4% Paraformaldehyde (PFA) for two hours. For immunohistochemical staining, infected guinea pig colon samples were washed in PBS and incubated at 4° C. in PBS containing 16% sucrose for 4 hours, followed by incubation in PBS with 30% sucrose overnight. Samples were frozen in OCT (VWR 361603E) on dry ice. Frozen blocks were stored at −80 until sectioning. 10 to 30 μm sections were obtained using a cryostat CM-3050S (Leica). Tissue slices were labeled in PBS+0.1% saponin (Sigma-Aldrich) with MUB40-Cy5 or MUB40-Dylight (1 μg/ml) to localize recruited neutrophils. Slides were washed three time in PBS+0.1% saponin, three times in PBS, and three times in deionized H2O and mounted with prolong gold^tm mounting media.

[6] = system: neutrophils recruited to rabbit ileum infected with Shigella flexneri; experiment: Rabbit ligated loop model of shigellosis, staining of fixed ileum sections; conditions: 1 μg/mL
Procedure: Rabbit. The experimental protocol was approved by the french Ethic Committee Paris 1 (number 20070004, December 9th 2007). New Zealand White rabbits weighting 2.5-3 kg (Charles River) were used for experimental infections. For each animal, up to 12 intestinal ligated loops, each 5 cm in length, were prepared as described previously (Jones et al. 2007; Martinez et al. 1988; West et al. 2005) and infected with 10^5 CFU S. flexneri pGFP per loop. After 16 h, animals were sacrificed and collected tissue were fixed in 4% Paraformaldehyde (PFA) for two hours. For immunohistochemical staining, infected rabbit ileum samples were washed in PBS, incubated at 4° C. PBS containing 12% sucrose for 90 min, then in PBS with 18% sucrose overnight, and frozen in OCT (Sakura) on dry ice. 7 μm sections were obtained using a cryostat CM-3050 (Leica). Fluorescent staining was performed in PBS+0.1% saponin using Phalloidin-RRX (1:1000 dilution) to stain Actin, MUB40-Cy5 (1 μg/mL) and a mouse anti-lactoferrin primary monoclonal antibody (Hycult biotech, clone 265-1K1, 1:50 dilution) and an anti-mouse-FITC conjugated secondary antibody (1:1000) to stain infiltrated neutrophils. Slides were washed three time in PBS+0.1% saponin, three times in PBS, and three times in deionized H2O and mounted with prolong gold^tm mounting media.

Row | Substance | degradation by trypsin (in words) (trypsin) | fluorescent signal accumulation at hind and front inflamed ankles [1] | labelling of / binding to human colonic mucus (human colonic mucus) | relation of epifluorescent signal to luminol bioluminescent signal ([2]; hind ankle joints, p≤0.0001) | accumulation of fluorescent signal at inflammatory sites ([2]; i.v. injection, arthritic mice but not naïve controls, day 6) | epifluorescent signal, arthritic mice vs controls ([2]; p≤0.0001, T-test) | labelling of human neutrophil granules [3] | detection of lactoferrin degranulation on living neutrophils (living human neutrophils; Shigella flexneri MOI 20, 1 μg/mL, 37°C) | crossing of plasma membrane of living cells (living human neutrophils; live cells, listed as RI-MUB40-Cy5) | binding to mucus produced by human cell lines (L174T) [4] | labelling of recruited neutrophils [5] | labelling of recruited neutrophils [6]
1 | Ac-[dC](X1)[dF][dI][dV][dT][dY][dF][dQ][dD][dN][dT][dD][dD][dN][dD][dF][dK][dE]G[dA][dP][dF][dN][dD][dK][dF][dL][dE][dY]G[dD]G[dE][dF][dK][dK][dI]G[dE][dA][dT]-NH2 [Cy5-RI-MUB40] | no degradation | significantly higher compared to MUB40-Cy5 | validated | correlated | a fluorescent signal accumulated at inflammatory sites | significantly higher in arthritic mice compared to controls | validated | transient, dot-shaped fluorescent signals were detected on the cells' surface | did not cross the plasma membrane of living cells; also recorded: does not cross plasma membrane of live cells | validated | – | –
2 | MUB40-Dylight405: MUB40#1 (SEQ ID NO: 3) labeled with Dylight 405 (CTAEGIKKFEGDGYELFKDNFPAGEKFDNDDTNDQFYTVIF; also: Dylight 405 label (site not given here)) | – | – | – | – | – | – | specifically labeled | – | – | – | specifically labeled | specifically labeled
